Measured values: publication PMC10734772 (Turkish Journal of Chemistry, 2021)

Key:
Format in all cases: cell-based
K562 = assay: MTT assay, K562 cells; details: Homo sapiens, 24 h, MTT, read-out: Viability rate
Reh = assay: MTT assay, Reh cells; details: Homo sapiens, 24 h, read-out: Viability rate
Protocol: (§1) K562, Jurkat, Molt-4, and Nalm-6 cell lines were cultured in RPMI-1640 medium (ECM2001, Euroclone), Reh cell line was cultured in DMEM medium (LM-D1111-Biosera) Hek293T cell line was cultured in IMDM medium (AL070A - HiMedia) supplemented with 10% heat-inactivated fetal bovine serum (F7524-Merck & Co., USA,) penicillin and streptomycin (P4333-Sigma Aldrich). K562, Jurkat and Molt-4 cell lines were seeded as 4x10^5/ml, Reh and Nalm-6 cell lines were seeded 5x10^5/ml, Hek293T cell line was seed as 2x10^5/ml. All cells were incubated at 5% CO2 and 37 °C. All cell lines were kindly provided by Dr. M. Sayitoglu and Dr. Ö. Hatirnaz-Ng from Acibadem University.
(§2) MTT assay is a 3-day test. On the first day, cell count was performed in Bio Rad TC-20 device with the help of trypan blue, each cell line was prepared by diluting to the specified concentrations and seeded in a 96-well plate as 100μL to each well and incubated for 1 day.
(§3) Each compound was solved in DMSO, their stock solutions (33.3, 10, 5, 1 mM, and 300 μM) were prepared by diluting with the same solvent and they were stored under −20°C when they were not used.
(§4) On the second day, stock solutions were subsequently diluted to various concentrations (0.3–200 μM) with related medium prior to experiments. Specified concentrations of the compounds were seeded in a 96-well plate as 100μL to each well and incubated for 24 h.
(§5) After incubation (on the third day), to precipitate leukemia cells, the cell plate was centrifuged at 1500 rpm for 5 min. Then, 100 μL of supernatant was removed from each well carefully and 10 μl of MTT solution (5 mg/mL) was added to each well and incubated at 37 °C for 4 h. The 50 μl of supernatant was discarded from each well and 100 μl of DMSO was added to dissolve the formazan. Plates were shaken for 45 min to dissolve the dye. Then the optical density of each well was measured by using Thermo VarioSkan Flush Multimode Reader Quantum ST5-1100 at 570 nm wavelength.
(§6) Subsequently, viability rate of the cells at each concentration, as percentage, was determined by following formula (1):
(§7) Viability rate (%)=100-[(OD(control)-OD(sample))/OD(control)×100].OD=Optical Density
(§8) The IC50 values were calculated by using GraphPad Prism. All the data presented as the mean of 6 replicates. Results were analyzed and illustrated with Graph Pad Prism (version 5; GraphPad Software, San Diego, CA, USA). Statistical analysis was performed using dose-response inhibition, log(inhibitor) vs response-variable slope, least squares (ordinary) fit.
(§9) To evaluate in-vitro anti-cancer activity of the newly synthesized compounds, they were tested by using the MTT assay in the BCR-ABL positive leukemic cell line (K562), BCR-ABL negative leukemic cell lines (Nalm-6, Molt-4, Reh and Jurkat), and non-leukemic human embryonic kidney tissue (Hek293T) cell line. […] The viability rate of each concentration was calculated by the formula stated in material and methods, the viability rate results for each cell were presented in Table S2 and Figure S44.

Nalm-6 = assay: MTT assay, Nalm-6 cells; details: Homo sapiens, 24 h, MTT, read-out: Viability rate
Jurkat = assay: MTT assay, Jurkat cells; details: Homo sapiens, 24 h, read-out: Viability rate
Protocol: as §1, §2, §3, §4, §5, §6, §7, §8, §9

[1] = MTT assay, Hek293T non-leukemic control cells; details: human, Hek293T cells (non-leukemic control cell line), read-out: Viability rate
Protocol: as §1, §2, §3, §4, §5, §6, §7, §8, §9

[2] = tested on: K562, Nalm-6, Molt-4, Reh, Jurkat, Hek293T cell lines; assay: MTT assay, overall judgement over all cell lines; details: overall judgement in words; for 6 and 10: on all cell lines, except Reh
Protocol: as §9

Molt-4 = assay: MTT assay, Molt-4 cells; details: Homo sapiens, MOLT-4, 24 h, read-out: Viability rate
Protocol: as §1, §2, §3, §4, §5, §6, §7, §8, §9

Cc1ccnc(Nc2cc(NC(=O)c3ccc(CN4CCN(c5ncccn5)CC4)cc3)ccc2C)n1 [Compound 5, N-(4-Methyl-3-((4-methylpyrimidin-2-yl)amino)phenyl)-4-((4-(pyrimidin-2-yl)piperazin-1-yl)methyl)benzamide]
viability at 1 µM (K562; K562, 1 μM): 103.1 ± 0.07% | viability at 3 µM (K562; K562, 3 μM): 98.7 ± 0.08% | viability at 5 µM (K562; K562, 5 μM): 99.7 ± 0.06% | viability at 10 µM (K562; K562, 10 μM): 97 ± 0.05% | viability at 15 µM (K562; K562, 15 μM): 99.5 ± 0.12% | viability at 20 µM (K562; K562, 20 μM): 106.5 ± 0.04% | viability at 30 µM (K562; K562, 30 μM): 102.7 ± 0.05% | viability at 50 µM (K562; K562, 50 μM): 101.6 ± 0.12% | viability at 70 µM (K562; K562, 70 μM): 100.1 ± 0.08% | viability at 100 µM (K562; K562, 100 μM): 104.6 ± 0.1% | viability at 150 µM (K562; K562, 150 μM): 104.3 ± 0.1% | viability at 200 µM (K562; K562, 200 μM): 102.1 ± 0.14% | viability at 1 µM (Reh; 1 μM): 96.6 ± 0.01% | viability at 3 µM (Reh; 3 μM): 95.8 ± 0.05% | viability at 5 µM (Reh; 5 μM): 95.7 ± 0.03% | viability at 10 µM (Reh; 10 μM): 95.1 ± 0.04% | viability at 15 µM (Reh; 15 μM): 94.9 ± 0.04% | viability at 20 µM (Reh; 20 μM): 90.2 ± 0.03% | viability at 30 µM (Reh; 30 μM): 87.9 ± 0.04% | viability at 50 µM (Reh; 50 μM): 85.5 ± 0.05% | viability at 70 µM (Reh; 70 μM): 81.4 ± 0.01% | viability at 100 µM (Reh; 100 μM): 79.1 ± 0.01% | viability at 150 µM (Reh; 150 μM): 79.1 ± 0.02% | viability at 200 µM (Reh; 200 μM): 74% | viability at 1 µM (Nalm-6; Nalm-6, 1 μM): 95.8 ± 0.01% | viability at 3 µM (Nalm-6; Nalm-6, 3 μM): 95 ± 0.02% | viability at 5 µM (Nalm-6; Nalm-6, 5 μM): 92.4 ± 0.03% | viability at 10 µM (Nalm-6; Nalm-6, 10 μM): 90.1 ± 0.02% | viability at 15 µM (Nalm-6; Nalm-6, 15 μM): 84.1 ± 0.01% | viability at 20 µM (Nalm-6; Nalm-6, 20 μM): 80.1 ± 0.02% | viability at 30 µM (Nalm-6; Nalm-6, 30 μM): 78.6 ± 0.01% | viability at 50 µM (Nalm-6; Nalm-6, 50 μM): 74.1 ± 0.01% | viability at 70 µM (Nalm-6; Nalm-6, 70 μM): 71.9 ± 0.01% | viability at 100 µM (Nalm-6; Nalm-6, 100 μM): 70.3 ± 0.01% | viability at 150 µM (Nalm-6; Nalm-6, 150 μM): 70.2 ± 0.01% | viability at 200 µM (Nalm-6; Nalm-6, 200 μM): 70.5 ± 0.01% | viability at 3 µM (Jurkat; 3 μM): 90.1 ± 0.11% | viability at 5 µM (Jurkat; 5 μM): 89.7 ± 0.09% | viability at 10 µM (Jurkat; 10 μM): 89.6 ± 0.15% | viability at 15 µM (Jurkat; 15 μM): 88.8 ± 0.09% | viability at 20 µM (Jurkat; 20 μM): 88.8 ± 0.08% | viability at 30 µM (Jurkat; 30 μM): 88.1 ± 0.1% | viability at 50 µM (Jurkat; 50 μM): 83.4 ± 0.12% | viability at 70 µM (Jurkat; 70 μM): 82.5 ± 0.07% | viability at 100 µM (Jurkat; 100 μM): 80.8 ± 0.13% | viability at 150 µM (Jurkat; 150 μM): 78.7 ± 0.12% | viability at 200 µM (Jurkat; 200 μM): 66.5 ± 0.05% | viability at 24 h, 3 µM ([1]; 3 μM): 66.5 ± 0.11% | viability at 24 h, 5 µM ([1]; 5 μM): 61 ± 0.13% | viability at 24 h, 10 µM ([1]; 10 μM): 59.4 ± 0.08% | viability at 24 h, 15 µM ([1]; 15 μM): 56.6 ± 0.1% | viability at 24 h, 20 µM ([1]; 20 μM): 56.2 ± 0.03% | viability at 24 h, 30 µM ([1]; 30 μM): 55.8 ± 0.05% | viability at 24 h, 50 µM ([1]; 50 μM): 54.1 ± 0.04% | viability at 24 h, 70 µM ([1]; 70 μM): 52.7 ± 0.03% | viability at 24 h, 100 µM ([1]; 100 μM): 50.5 ± 0.02% | viability at 24 h, 150 µM ([1]; 150 μM): 50.4 ± 0.02% | viability at 24 h, 200 µM ([1]; 200 μM): 50 ± 0.04% | anticancer activity according to MTT assay results [2]: very poor activity | viability at 1 µM (Molt-4; Molt-4, 1 μM): 95.2 ± 0.08% | viability at 3 µM (Molt-4; Molt-4, 3 μM): 84.6 ± 0.04% | viability at 5 µM (Molt-4; Molt-4, 5 μM): 85.1 ± 0.11% | viability at 10 µM (Molt-4; Molt-4, 10 μM): 84.8 ± 0.03% | viability at 15 µM (Molt-4; Molt-4, 15 μM): 84.9 ± 0.11% | viability at 20 µM (Molt-4; Molt-4, 20 μM): 85.8 ± 0.03% | viability at 30 µM (Molt-4; Molt-4, 30 μM): 85.3 ± 0.06% | viability at 50 µM (Molt-4; Molt-4, 50 μM): 86.1 ± 0.11% | viability at 70 µM (Molt-4; Molt-4, 70 μM): 84.6 ± 0.05% | viability at 100 µM (Molt-4; Molt-4, 100 μM): 83.5 ± 0.12% | viability at 150 µM (Molt-4; Molt-4, 150 μM): 87.1 ± 0.09% | viability at 200 µM (Molt-4; Molt-4, 200 μM): 86.6 ± 0.08%
